Legend:
normal dogs = test: Intravenous bolus of polypeptide in normal dogs (renal, haemodynamic and hormonal effects); assay type: in vivo, dog; conditions: 25 μg per kg IV bolus; for mean arterial blood pressure: FIG. 6; for plasma vasopressin levels: FIG. 7; for renal blood flow: FIG. 8; for vasodilatory effects: concluded from mean arterial blood pressure and renal blood flow
Experimental: Polypeptides with the sequences set forth in FIGS. 1-3 were designed and synthesized. The polypeptide set forth in FIG. 1 is referred to as an ABC-NP polypeptide; the polypeptide set forth in FIG. 2 is referred to as an ABC-NP1 polypeptide; and the polypeptide set forth in FIG. 3 is referred to as a BC-NP2 polypeptide. The biological effects of intravenous ABC-NP, ABC-NP1, or BC-NP2 infusion were tested in normal dogs. Briefly, five normal dogs were infused with 25 μg of ABC-NP, ABC-NP1, or BC-NP2 per kg administered as an IV bolus. Urinary sodium excretion, urine flow, mean arterial blood pressure, plasma vasopressin levels, and renal blood flow were measured as described elsewhere (Chen et al., Am. J. Physiol. Regul. Integr. Comp. Physiol., 288: R1093-R1097 (2005) and Haber et al., J. Clin. Endocrinol. Metab., 29:1349-1355 ([…])). The results were compared to results obtained from dogs treated with 25 μg of BNP per kg administered as an IV bolus.

[1] = tested on: human cardiac fibroblasts; test: cGMP generation in cardiac fibroblast cells (competitive RIA); assay type: cell-based; conditions: 10^−11 M, 10^−8 M, or 10^−6 M for 10 minutes, FIGS. 9-11
Experimental: The biological effects of ABC-NP, ABC-NP1, or BC-NP2 on cardiac fibroblast cells were tested in vitro. Briefly, 80-90% confluent cardiac fibroblast cells were incubated in Hank's balanced salt solution (InVitrogen) containing 20 mmol/L N-[2-hydroxyethyl]piperazine-N′[2-ethanesulfonic acid], 0.1% bovine serum albumin, and 0.5 mmol/L 3-isobutyl-1-methylzanthine (Sigma). Treated cells received ANP (10^−6M), BNP (10^−6M), CNP (10^−6M), ABC-NP (10^−11M, 10^−8M, or 10^−6M), ABC-NP1 (10^−11 M, 10^−8 M, or 10^−6 M), or BC-NP2 (10^−11M, 10^−8 M, or 10^−6 M) for 10 minutes. Cells were lysed in 6% TCA and sonicated for 10 minutes. The samples were ether extracted four times in four volumes of ether, dried, and reconstituted in 300 μL cGMP assay buffer. The samples were assayed using a competitive RIA cGMP kit (Perkin-Elmer, Boston, Mass.). Briefly, samples and standards were incubated with 100 μL anti-human cGMP polyclonal antibody and I^125-antigen for 18 hours. cGMP assay buffer was added to the samples, and they were centrifuged for 20 minutes at 2500 rpm. The free fraction was aspirated off; the bound fraction was counted; and concentrations determined Samples were corrected for dilution factors, and values were expressed as pmoles/mL. There is no cross-reactivity with ANP, BNP, or CNP, and there is <0.001% reactivity with cAMP, GMP, GDP, ATP, and GTP.

| Substance | mean arterial blood pressure (normal dogs) | plasma vasopressin levels (normal dogs) | renal blood flow (normal dogs) | prolonged aquaretic and diuretic renal actions (normal dogs; FIGS. 4 and 5) | cGMP activation [1] | aquaretic and natriuretic effects (urinary sodium excretion, urine flow) (normal dogs; FIGS. 4 and 5) | vasodilatory effects (normal dogs) | renal effects as compared to ABC-NP (normal dogs; FIGS. 4 and 5) |
| --- | --- | --- | --- | --- | --- | --- | --- | --- |
| ABC-NP1: 33-residue polypeptide: human mature ANP residues 11-15, human mature CNP residues 1-22, human mature BNP residues 27-32 (RMDRIGLSKGCFGLKLDRIGSMSGLGCKVLRRH; combination of SEQ ID NOs1, 7, and 3) | reduction | strong trend for increasing | increase | no prolonged aquaretic and diuretic renal actions observed | activated cGMP |  |  |  |
| ABC-NP: 33-residue polypeptide: human ANP residues 11-15, human CNP 1-22 with positions 15-17 changed to Arg-Glu-Ala, human BNP residues 27-32 (RMDRIGLSKGCFGLKLDRIREASGLGCKVLRRH; combination of SEQ ID NOs1, 2, and 3) | no effect | did not increase |  |  | did not | resulted in aquaretic and natriuretic effects | does not have vasodilatory effects |  |
| BC-NP2: 28-residue polypeptide: human CNP 1-22 with positions 15-17 changed to arginine, glutamic acid, alanine, then human BNP residues 27-32 (GLSKGCFGLKLDRIREASGLGCKVLRRH; combination of SEQ ID NOs2 and 3) | did not result in a decrease |  | did not result in a decrease in mean arterial blood pressure or an increase in renal blood flow |  | did not |  | does not have vasodilatory effects | about 50% |
| BNP: natriuretic peptide of myocardial cell origin; main form a 32 amino acid polypeptide with a ring structure; comparator [reference compound] |  | increased |  |  |  |  |  |  |
